Assay results taken from PubChem BioAssay AID330 (DTP/NCI, 2004).
Values joined by “and” are separate entries in the source; they are usually repeats but may differ in a detail not shown here. Identical values can stand only once. Inconclusive results and toxic doses are left out. Peptide text beside a SMILES is read from it. * marks the point of attachment. CH2Cl = ClC*

Test system: P388 leukemia ip, CD2F1 mice, survival T/C
Test: NCI In Vivo Anticancer Drug Screen. Data for tumor model P388 Leukemia (intraperitoneal) in CD2F1 (CDF1) mice
Conditions: endpoint: median survival time, higher = longer survival
Summary of the method: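 Mice carrying the transplanted tumor received test compound or vehicle. Survival was recorded in each group, and the value is the treated-group measurement divided by that of the vehicle-treated control group.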

[1] = dose: 100.0 mg/kg/injection, schedule: Q01DX001 (ip), vehicle: Klucel (hydroxypropylcellulose) (HPC)
[2] = dose: 200.0 mg/kg/injection, schedule: Q01DX001 (ip), vehicle: Klucel (hydroxypropylcellulose) (HPC)
[3] = dose: 400.0 mg/kg/injection, schedule: Q01DX001 (ip), vehicle: Klucel (hydroxypropylcellulose) (HPC)
[4] = dose: 12.5 mg/kg/injection, schedule: Q01DX009 (ip), vehicle: Klucel (hydroxypropylcellulose) (HPC)
[5] = dose: 25.0 mg/kg/injection, schedule: Q01DX009 (ip), vehicle: Klucel (hydroxypropylcellulose) (HPC)
[6] = dose: 50.0 mg/kg/injection, schedule: Q01DX009 (ip), vehicle: Klucel (hydroxypropylcellulose) (HPC)
[7] = dose: 100.0 mg/kg/injection, schedule: Q01DX009 (ip), vehicle: Klucel (hydroxypropylcellulose) (HPC)
[8] = dose: 100.0 mg/kg/injection, schedule: Q04DX003 (ip), vehicle: saline with Tween-80
[9] = dose: 3.12 mg/kg/injection, schedule: Q01DX009 (ip), vehicle: Klucel (hydroxypropylcellulose) (HPC)
[10] = dose: 6.25 mg/kg/injection, schedule: Q01DX009 (ip), vehicle: Klucel (hydroxypropylcellulose) (HPC)
[11] = dose: 50.0 mg/kg/injection, schedule: Q01DX005 (ip), vehicle: saline with Tween-80
[12] = dose: 100.0 mg/kg/injection, schedule: Q01DX005 (ip), vehicle: saline with Tween-80
[13] = dose: 200.0 mg/kg/injection, schedule: Q01DX005 (ip), vehicle: saline with Tween-80
[14] = dose: 50.0 mg/kg/injection, schedule: Q01DX005 (ip), vehicle: Klucel (hydroxypropylcellulose) (HPC)
[15] = dose: 100.0 mg/kg/injection, schedule: Q01DX005 (ip), vehicle: Klucel (hydroxypropylcellulose) (HPC)
[16] = dose: 200.0 mg/kg/injection, schedule: Q01DX005 (ip), vehicle: Klucel (hydroxypropylcellulose) (HPC)
[17] = dose: 1.56 mg/kg/injection, schedule: Q01DX009 (ip), vehicle: Klucel (hydroxypropylcellulose) (HPC)
[18] = dose: 50.0 mg/kg/injection, schedule: Q01DX009 (ip), vehicle: saline
[19] = dose: 100.0 mg/kg/injection, schedule: Q01DX009 (ip), vehicle: saline
[20] = dose: 200.0 mg/kg/injection, schedule: Q01DX009 (ip), vehicle: saline
[21] = dose: 50.0 mg/kg/injection, schedule: Q01DX005 (ip), vehicle: saline
[22] = dose: 100.0 mg/kg/injection, schedule: Q01DX005 (ip), vehicle: saline
[23] = dose: 200.0 mg/kg/injection, schedule: Q01DX005 (ip), vehicle: saline

## O=C(CCc1cc2[nH]c1c(-c1ccccc1)c1nc(c(-c3ccccc3)c3ccc([nH]3)c(-c3ccccc3)c3nc(c2-c2ccccc2)C=C3)C=C1)OCCCc1cccnc1
dose: 50.0 mg/kg/injection, schedule: Q01DX001 (ip), vehicle: Klucel (hydroxypropylcellulose) (HPC)
  T/C: 100 % of control
[1]
  T/C: 105 % of control
[2]
  T/C: 100 % of control
[3]
  T/C: 91 % of control

## OCC1OC(n2cnc3c(NO)ncnc32)CC1O (stereo unspecified)
[4]
  T/C: 100 % of control
[5]
  T/C: 112 % of control
[6]
  T/C: 100 % of control
[7]
  T/C: 100 % of control

## CCN(CC)C(=O)c1nc(-c2cccc3ccccc23)no1
[6]
  T/C: 100 % of control
[7]
  T/C: 97 % of control
dose: 200.0 mg/kg/injection, schedule: Q01DX009 (ip), vehicle: Klucel (hydroxypropylcellulose) (HPC)
  T/C: 98 % of control

## CCCCCCC(Cn1ccnc1)c1ccc(Br)cc1 (stereo unspecified)
[8]
  T/C: 100 % of control
dose: 200.0 mg/kg/injection, schedule: Q04DX003 (ip), vehicle: saline with Tween-80
  T/C: 91 % of control

## CC(=O)NC(CC(C)C)C(=O)NC(Cc1ccccc1)C(=O)CCl (stereo not drawn) (Ac-Leu-Phe-CH2Cl; configuration not given here)
[9]
  T/C: 103 % of control
[10]
  T/C: 113 % of control
[4]
  T/C: 120 % of control
[5]
  T/C: 116 % of control

## CC1(C)NC(=O)NC(=O)C1Br (stereo unspecified)
[11]
  T/C: 99 % of control
[12]
  T/C: 102 % of control
[13]
  T/C: 103 % of control

## CC(C)CNC(=O)c1ccc(OCC(O)CNC(C)(C)C)c(Cl)c1 (stereo unspecified)
dose: 100.0 mg/kg/injection, schedule: Q04DX003 (ip), vehicle: Klucel (hydroxypropylcellulose) (HPC)
  T/C: 107 % of control
dose: 200.0 mg/kg/injection, schedule: Q04DX003 (ip), vehicle: Klucel (hydroxypropylcellulose) (HPC)
  T/C: 102 % of control

## Nc1ccc(N=Nc2cccc3c(N=Nc4ccc(N)nc4N)cccc23)c(N)n1
dose: 25.0 mg/kg/injection, schedule: Q01DX005 (ip), vehicle: Klucel (hydroxypropylcellulose) (HPC)
  T/C: 97 % of control
[14]
  T/C: 100 % of control
[15]
  T/C: 98 % of control
[16]
  T/C: 93 % of control

## Nc1nc(-c2ccccc2N=NN2CCN(N=Nc3ccccc3-c3nc(N)c4ccccc4n3)CC2)nc2ccccc12
dose: 0.78 mg/kg/injection, schedule: Q01DX009 (ip), vehicle: Klucel (hydroxypropylcellulose) (HPC)
  T/C: 104 % of control
[17]
  T/C: 102 % of control
[9]
  T/C: 95 % of control
[10]
  T/C: 100 % of control

## CC(C(=O)c1ccc(Cl)cc1)c1ccccc1 (stereo unspecified)
[18]
  T/C: 96 % of control
[19]
  T/C: 105 % of control
[20]
  T/C: 99 % of control

## CC(=O)C1(CCC(C)(S(=O)(=O)c2ccccc2)S(=O)(=O)c2ccccc2)CCCCC1=O (stereo unspecified)
[1]
  T/C: 99 % of control
[2]
  T/C: 100 % of control
[3]
  T/C: 106 % of control

## NC(=O)C1C2CC3C(C2O)C31C(N)=O (stereo unspecified)
[21]
  T/C: 91 % of control
[22]
  T/C: 92 % of control
[23]
  T/C: 98 % of control

## C/C=C/C=C(/C=O)[C@@H](O)C(C)=O
dose: 2.0 mg/kg/injection, schedule: Q01DX009 (ip), vehicle: saline + alcohol
  T/C: 121 % of control and 93 % of control
dose: 4.0 mg/kg/injection, schedule: Q01DX009 (ip), vehicle: saline + alcohol
  T/C: 101 % of control
dose: 8.0 mg/kg/injection, schedule: Q01DX009 (ip), vehicle: saline + alcohol
  T/C: 101 % of control
dose: 16.0 mg/kg/injection, schedule: Q01DX009 (ip), vehicle: saline + alcohol
  T/C: 111 % of control

## CCN(CC)CCOC(=O)C(C(=O)OCCN(CC)CC)C1CCCC1
[21]
  T/C: 94 % of control
[22]
  T/C: 92 % of control
[23]
  T/C: 100 % of control

## COC(=O)/C(=C/Cl)NC(C)=O
dose: 12.5 mg/kg/injection, schedule: Q01DX001 (ip), vehicle: suspension in saline
  T/C: 91 % of control
dose: 25.0 mg/kg/injection, schedule: Q01DX001 (ip), vehicle: suspension in saline
  T/C: 99 % of control
dose: 50.0 mg/kg/injection, schedule: Q01DX001 (ip), vehicle: suspension in saline
  T/C: 92 % of control
dose: 200.0 mg/kg/injection, schedule: Q01DX001 (ip), vehicle: suspension in saline
  T/C: 98 % of control

## COC(=O)CC1C2(C)CC34OC5(C)OC6(C7CC(=O)OC(c8ccoc8)C7(C)CCC6(O5)C13C)C(OC(=O)C(C)C)C4(O)C2OC(=O)C(C)C (stereo unspecified)
dose: 0.37 mg/kg/injection, schedule: Q01DX009 (ip), vehicle: Klucel (hydroxypropylcellulose) (HPC)
  T/C: 109 % of control
dose: 0.75 mg/kg/injection, schedule: Q01DX009 (ip), vehicle: Klucel (hydroxypropylcellulose) (HPC)
  T/C: 109 % of control
dose: 1.5 mg/kg/injection, schedule: Q01DX009 (ip), vehicle: Klucel (hydroxypropylcellulose) (HPC)
  T/C: 102 % of control
dose: 3.0 mg/kg/injection, schedule: Q01DX009 (ip), vehicle: Klucel (hydroxypropylcellulose) (HPC)
  T/C: 101 % of control

## CN(Cc1cnc2nc(N)nc(N)c2n1)c1ccc(C(=O)NC(CCC(=O)NC(CCC(=O)O)C(=O)O)C(=O)O)cc1 (stereo unspecified)
[17]
  T/C: 184 % of control and 218 % of control
[9]
  T/C: 214 % of control and 94 % of control
[10]
  T/C: 88 % of control

## CC(=O)OC1CC2C(=S)Nc3cc4c(cc3C(=O)N2C1)OCO4 (stereo unspecified)
[11]
  T/C: 92 % of control
[12]
  T/C: 91 % of control
[13]
  T/C: 89 % of control

## Cc1c(Cl)cccc1NC(=O)c1cccc([N+](=O)[O-])c1O
dose: 50.0 mg/kg/injection, schedule: Q01DX009 (ip), vehicle: saline with Tween-80
  T/C: 102 % of control
dose: 100.0 mg/kg/injection, schedule: Q01DX009 (ip), vehicle: saline with Tween-80
  T/C: 93 % of control

## CN=C(N)NN
dose: 25.0 mg/kg/injection, schedule: Q01DX009 (ip), vehicle: saline
  T/C: 101 % of control
[18]
  T/C: 97 % of control
[19]
  T/C: 93 % of control
[20]
  T/C: 97 % of control

## CC(C)N(CCO)CC(O)Cn1cnc2c(N)ncnc21 (stereo unspecified) (tested in a mixture with another compound)
dose: 60.0 mg/kg/injection, schedule: Q01DX005 (ip), vehicle: saline
  T/C: 97 % of control
dose: 120.0 mg/kg/injection, schedule: Q01DX005 (ip), vehicle: saline
  T/C: 94 % of control
dose: 240.0 mg/kg/injection, schedule: Q01DX005 (ip), vehicle: saline
  T/C: 93 % of control

## O=C1c2ccccc2C(=O)N1Cc1ccc(Cl)cc1[N+](=O)[O-]
[14]
  T/C: 103 % of control
[15]
  T/C: 109 % of control
[16]
  T/C: 98 % of control

## CC1(C)C(=NOCc2ccccc2)C(C)(C)C1=NOCc1ccccc1
[11]
  T/C: 91 % of control
[12]
  T/C: 87 % of control
[13]
  T/C: 86 % of control

## Clc1ccc(N2CCOCC2)nn1
[18]
  T/C: 104 % of control
[19]
  T/C: 88 % of control
[20]
  T/C: 100 % of control

## CCC(=O)Oc1ccccc1C
dose: 12.5 mg/kg/injection, schedule: Q04DX003 (ip), vehicle: saline with Tween-80
  T/C: 103 % of control
dose: 25.0 mg/kg/injection, schedule: Q04DX003 (ip), vehicle: saline with Tween-80
  T/C: 105 % of control
dose: 50.0 mg/kg/injection, schedule: Q04DX003 (ip), vehicle: saline with Tween-80
  T/C: 103 % of control
[8]
  T/C: 103 % of control

## CCCCCCC1(/C=C/c2ccc(Cl)c(Cl)c2)OCCCO1
dose: 50.0 mg/kg/injection, schedule: Q01DX009 (ip), vehicle: saline + alcohol
  T/C: 98 % of control
dose: 100.0 mg/kg/injection, schedule: Q01DX009 (ip), vehicle: saline + alcohol
  T/C: 93 % of control
dose: 200.0 mg/kg/injection, schedule: Q01DX009 (ip), vehicle: saline + alcohol
  T/C: 98 % of control

## CCCn1c(C)nc2c(cnn2C)c1=O
[14]
  T/C: 101 % of control
[15]
  T/C: 104 % of control
[16]
  T/C: 111 % of control

## Oc1ccccc1C=NCCSSCCN=Cc1ccccc1O
dose: 60.0 mg/kg/injection, schedule: Q01DX005 (ip), vehicle: Klucel (hydroxypropylcellulose) (HPC)
  T/C: 106 % of control
dose: 120.0 mg/kg/injection, schedule: Q01DX005 (ip), vehicle: Klucel (hydroxypropylcellulose) (HPC)
  T/C: 101 % of control
dose: 240.0 mg/kg/injection, schedule: Q01DX005 (ip), vehicle: Klucel (hydroxypropylcellulose) (HPC)
  T/C: 108 % of control
